The values below come from patent publication US20190322676A1, “CERAMIDE GALACTOSYLTRANSFERASE INHIBITORS FOR THE TREATMENT OF DISEASE” (BioMarin Pharmaceutical Inc., priority 2016, published 2019).

The term IC50 denotes the concentration needed to halve the response being measured. Low readings indicate higher potency, high ones lower potency.

What all share (format): biochemical
Assay [1] has as its target T1, human CGT (ceramide galactosyltransferase), CHO/CGT lysate (Homo sapiens, UniProt Q16880).
T1 construct: Full-length human CGT cDNA was cloned into the BamH1/Xho1 site of pcDNA3.1 (+); expressed in transfected cells; host or cells: Chinese hamster ovary (CHO) cells; lysate prepared with M-PER
T1 sequence (Q16880 21-541): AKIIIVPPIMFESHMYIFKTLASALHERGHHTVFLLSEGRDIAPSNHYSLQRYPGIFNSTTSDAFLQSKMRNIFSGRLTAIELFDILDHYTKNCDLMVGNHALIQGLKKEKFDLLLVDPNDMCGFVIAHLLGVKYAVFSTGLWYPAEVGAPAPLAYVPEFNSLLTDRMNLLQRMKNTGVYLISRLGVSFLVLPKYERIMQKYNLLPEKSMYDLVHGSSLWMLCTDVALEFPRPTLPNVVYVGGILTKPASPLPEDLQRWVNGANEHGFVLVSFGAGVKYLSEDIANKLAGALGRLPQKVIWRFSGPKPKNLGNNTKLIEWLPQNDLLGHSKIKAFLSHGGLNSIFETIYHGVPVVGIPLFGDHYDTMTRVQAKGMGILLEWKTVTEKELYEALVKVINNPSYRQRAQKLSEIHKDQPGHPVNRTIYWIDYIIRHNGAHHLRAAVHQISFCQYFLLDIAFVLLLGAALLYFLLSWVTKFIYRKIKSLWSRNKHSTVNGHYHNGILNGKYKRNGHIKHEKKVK
In words: CGT enzyme assay, LC-MS/MS readout (Table 1 ranges without asterisk). The settings on record: LC-MS/MS method (range without asterisk). Here is the method: Full-length human CGT cDNA was cloned into the BamH1/Xho1 site of pcDNA3.1 (+) mammalian expression vector (V90-20, Invitrogen, Carlsbad, Calif.) and the plasmid was transfected into Chinese hamster ovary (CHO) cells. Lysate was prepared using M-PER (Mammalian Protein Extraction Reagent, ThermoFisher Scientific, Grand Island, N.Y.) in the presence of a protease inhibitor cocktail (P8340, Sigma, Saint Louis, Mo.). Each 100 mm dish (100% confluent, approximately 1×10^7 cells) was lysed with 250 μL of M-PER containing protease inhibitors. Protein concentration was determined using a Pierce BCA protein assay kit (ThermoFisher Scientific). Four micrograms of CHO/CGT lysate was incubated with various concentrations of a compound (0.001 μM-50 μM) in 10 mM HEPES (pH 7.2) containing 35 μM dioleoylphosphatidylcholine, 5 mM MgCl2, 5 mM MnCl2, 1% BSA, 15 mM KCl, 1 mM EGTA, 8 mM CHAPS, 10 μM C6-NBD-dihydro-ceramide and 17.5 μM UDP-galactose in a final reaction volume of 20 μL at 37° C. for 1 hour. The final concentration of DMSO was 0.5% in both compound-treated and mock-treated samples. Tween 80 (0.01%) was optionally added to the reaction mixture to help solubilize the compounds. Each individual reaction was diluted with 80 μL of methanol:acetronitrile (1:3) containing 5 μM N-docdecanoyl-NBD-galactosylceramide (internal standard) to stop the reaction. 200 μL H2O:acetonitile (1:1) was added to precipitate the protein. After sufficient mixing, the plates were centrifuged at 2469 g for 38 minutes, 200 μL of supernatant was transferred to a LC/MS 96-deep well plate and a second spin was performed at 2469 g for 10 minutes. The final supernatant was injected in triplicate for RapidFire/MS/MS analysis.
An alternative LC-MS/MS based method was also used. For the LC-MS/MS readout, the CGT assay was identical to the one described above except for the following: […] was used as the CGT enzyme source, C12:0 (2R—OH) ceramide was used as the ceramide substrate and 0.3 μM Cl2 ceramide was used as the internal standard. Tween 80 was not present in the reaction mixture. The final supernatant was injected for LC-MS/MS analysis.
Quantitative analysis using the LC-MS/MS method: The quantitative analysis of C12:0 (2R—OH) ceramide and C12:0 (2R—OH) galactosylceramide by LC-MS/MS was performed on a Shimadzu ultra-fast liquid chromatography (Shimadzu, Japan) coupled with API 4000 mass spectrometer (Applied Biosystems, Concord, Ontario, Canada). Analyst 1.5 software packages (Applied Biosystems) were used to control the LC-MS/MS system, as well as for data acquisition and processing. 10 μL of sample was loaded onto a Luna C18 column (50 mm×2.0 mm, I.D. 3 μm, 100A) (Phenomenex, USA) for chromatographic separation. Mobile phase A consisted of HPLC grade water with 0.1% formic acid (v/v) and mobile phase B consisted of acetonitrile supplemented with 0.1% formic acid (v/v). The separation was achieved using the following gradient program at a flow rate of 0.8 mL/min: the initial mobile phase was 70% B, which was increased in a linear fashion to 95% B in 1.50 min, and then maintained at 95% B until 3.50 min. The mobile phase was then reset to 70% B within 0.01 min, and maintained until 4.50 min. The total run time was 4.50 min. The MS/MS detection was performed in ESI positive mode. The mass transition selected for quantification was m/z 498.5-264.3 for C12:0 (2R—OH) ceramide under the collision energy of 38.8 V, and the mass transition of C12:0 (2R—OH) galactosylceramide was m/z 660.6-264.5 under the collision energy of 51 V. The mass transition of Cl2 ceramide which was used as internal standard was m/z 482.4-264.3 under the collision energy of 33V. Compound IC50 values were calculated using a protocol identical to the one described for the RapidFire method (see Table 1, where data ranges without an asterix correspond to analysis using the LC-MS/MS method).
Using the above CGT enzyme and CGT cellular assays, the compounds of Table 1 were tested. […]

Assay [2] concerns the target T1, human CGT (ceramide galactosyltransferase), CHO/CGT lysate. Kind of assay: CGT enzyme assay, RapidFire/MS/MS readout (Table 1 ranges with one asterisk *). The settings on record: RapidFire method (range with one asterisk *). Summed up: (§1)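 Lysate (4 μg) of CHO cells transfected with full-length human CGT incubated 1 h at 37 °C with compound (0.001–50 μM) in pH 7.2 HEPES buffer with 10 μM C6-NBD-dihydro-ceramide, 17.5 μM UDP-galactose, Mg2+/Mn2+, CHAPS, BSA, 0.5% DMSO; ** set also contained 0.01% Tween 80. Product quantified by RapidFire/MS/MS, normalized to internal standard; IC50 from sigmoidal variable-slope fits.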

The target is the same in assay [3]. In words: CGT enzyme assay, RapidFire/MS/MS readout with 0.01% Tween added (Table 1 ranges with two asterisks **). The settings on record: CGT enzyme assay, RapidFire/MS/MS method with 0.01% Tween added (range with two asterisks **). The gist of the method:
as §1

Counter-ions that a name gives are not always drawn.

Turning to `CC(C)Oc1ccc2cc(S(=O)(=O)N[C@@H](C(=O)N3C4CCC3CC(N)C4)C(F)(F)c3ccc(Br)cc3)ccc2c1` (stereo partly drawn) [Compound 1-2, N-((2S)-3-(3-amino-8-azabicyclo[3.2.1]octan-8-yl)-1-(4-bromophenyl)-1,1-difluoro-3-oxopropan-2-yl)-6-isopropoxynaphthalene-2-sulfonamide], in assay [1], the IC50 is 10 to 30 µM.
In turn, `CCC(CC)COc1ccc(S(=O)(=O)N[C@H](C(=O)N2C3CCC2CC(N)C3)C(F)(F)c2ccc(Br)cc2)cc1` (stereo partly drawn) [Compound 2-1, N-((2R)-3-(3-amino-8-azabicyclo[3.2.1]octan-8-yl)-1-(4-bromophenyl)-1,1-difluoro-3-oxopropan-2-yl)-4-(2-ethylbutoxy)benzenesulfonamide] had an IC50 in assay [1] of 1 to 10 µM.
For the molecule `CCC(CC)COc1ccc(S(=O)(=O)N[C@@H](C(=O)N2C3CCC2CC(N)C3)C(F)(F)c2ccc(Br)cc2)cc1` (stereo partly drawn) [Compound 2-2, N-((2S)-3-(3-amino-8-azabicyclo[3.2.1]octan-8-yl)-1-(4-bromophenyl)-1,1-difluoro-3-oxopropan-2-yl)-4-(2-ethylbutoxy)benzenesulfonamide], in assay [1], the IC50 was 30 to 100 µM.
In the case of `NC1CC2CCC(C1)N2C(=O)C(NS(=O)(=O)c1ccc(-c2ccc(F)cc2)cc1)C(F)(F)c1ccc(Br)cc1` (centres unmarked) [Compound 3, N-(3-(3-amino-8-azabicyclo[3.2.1]octan-8-yl)-1-(4-bromophenyl)-1,1-difluoro-3-oxopropan-2-yl)-4′-fluoro-[1,1′-biphenyl]-4-sulfonamide], the IC50 in assay [1] is 10 to 30 µM.
Still for that read-out and setting: then `NC1CC2CCC(C1)N2C(=O)[C@H](NS(=O)(=O)c1ccc(-c2ccc(F)cc2)cc1)C(F)(F)c1ccc(Br)cc1` (stereo partly drawn) [Compound 3-2, N-((2S)-3-(3-amino-8-azabicyclo[3.2.1]octan-8-yl)-1-(4-bromophenyl)-1,1-difluoro-3-oxopropan-2-yl)-4′-fluoro-[1,1′-biphenyl]-4-sulfonamide], with 30 to 100 µM; and `CC(C)Oc1ccc2cc(CCS(=O)(=O)NC(C(=O)N3C4CCC3CC(N)C4)C(F)(F)c3ccc(Br)cc3)ccc2c1` (centres unmarked) [Compound 4, N-(3-(3-amino-8-azabicyclo[3.2.1]octan-8-yl)-1-(4-bromophenyl)-1,1-difluoro-3-oxopropan-2-yl)-2-(6-isopropoxynaphthalen-2-yl)ethanesulfonamide trifluoroacetate], with 10 to 30 µM.
Regarding `NC1CC2CCC(C1)N2C(=O)C(NS(=O)(=O)c1ccc2cc(OC3CCCC3)ccc2c1)C(F)(F)c1ccc(Br)cc1` (centres unmarked) [Compound 5, N-(3-(3-amino-8-azabicyclo[3.2.1]octan-8-yl)-1-(4-bromophenyl)-1,1-difluoro-3-oxopropan-2-yl)-6-(cyclopentyloxy)naphthalene-2-sulfonamide trifluoroacetate], in assay [1], the IC50 is 1 to 10 µM.
For `NC1CC2CCC(C1)N2C(=O)[C@H](NS(=O)(=O)c1ccc2cc(OC3CCCC3)ccc2c1)C(F)(F)c1ccc(Br)cc1` (stereo partly drawn) [Compound 5-2, N-((2S)-3-(3-amino-8-azabicyclo[3.2.1]octan-8-yl)-1-(4-bromophenyl)-1,1-difluoro-3-oxopropan-2-yl)-6-(cyclopentyloxy)naphthalene-2-sulfonamide trifluoroacetate], the IC50 in assay [1] lay in the range of 1 to 10 µM.
Regarding `CCCCOc1ccc2cc(S(=O)(=O)N[C@H](C(=O)N3C4CCC3CC(N)C4)C(F)(F)c3ccc(Br)cc3)ccc2c1` (stereo partly drawn) [Compound 6-1, N-((2R)-3-(3-amino-8-azabicyclo[3.2.1]octan-8-yl)-1-(4-bromophenyl)-1,1-difluoro-3-oxopropan-2-yl)-6-butoxynaphthalene-2-sulfonamide trifluoroacetate], in assay [1], the IC50 is 1 to 10 µM.
The same measure, in the same setting: then `CCCCOc1ccc2cc(S(=O)(=O)N[C@@H](C(=O)N3C4CCC3CC(N)C4)C(F)(F)c3ccc(Br)cc3)ccc2c1` (stereo partly drawn) [Compound 6-2, N-((2S)-3-(3-amino-8-azabicyclo[3.2.1]octan-8-yl)-1-(4-bromophenyl)-1,1-difluoro-3-oxopropan-2-yl)-6-butoxynaphthalene-2-sulfonamide trifluoroacetate], with 30 to 100 µM; and `CC(C)COc1ccc2cc(S(=O)(=O)N[C@H](C(=O)N3C4CCC3CC(N)C4)C(F)(F)c3ccc(Br)cc3)ccc2c1` (stereo partly drawn) [Compound 7-1, N-((2R)-3-(3-amino-8-azabicyclo[3.2.1]octan-8-yl)-1-(4-bromophenyl)-1,1-difluoro-3-oxopropan-2-yl)-6-isobutoxynaphthalene-2-sulfonamide], with 1 to 10 µM.
For the molecule `NC1CCN(C(=O)[C@@H](NS(=O)(=O)c2ccc(OCC3CCCCC3)cc2)C(F)(F)c2ccc(-c3ccc(Cl)cc3)cc2)CC1` [Compound 96-1, (R)—N-(3-(4-aminopiperidin-1-yl)-1-(4′-chloro-[1,1′-biphenyl]-4-yl)-1,1-difluoro-3-oxopropan-2-yl)-4-(cyclohexylmethoxy)benzenesulfonamide trifluoroacetate], the IC50 in assay [2] and in assay [3] was 1 to 10 µM throughout.
In the case of `NC1CCN(C(=O)[C@H](NS(=O)(=O)c2ccc(OCC3CCCCC3)cc2)C(F)(F)c2ccc(-c3ccc(Cl)cc3)cc2)CC1` [Compound 96-2, (S)—N-(3-(4-aminopiperidin-1-yl)-1-(4′-chloro-[1,1′-biphenyl]-4-yl)-1,1-difluoro-3-oxopropan-2-yl)-4-(cyclohexylmethoxy) benzenesulfonamide trifluoroacetate], the IC50 in assay [2] and in assay [3] was 30 to 100 µM in each case.
For `NC1CC2CCC(C1)N2C(=O)[C@@H](NC(=O)[C@@H](O)c1ccc2cc(OC3CCCC3)ccc2c1)C(F)(F)c1ccc(-c2ccc(Cl)cc2)cc1` (stereo partly drawn) [Compound 136-3, (2S)—N-((2R)-3-(3-amino-8-azabicyclo[3.2.1]octan-8-yl)-1-(4′-chloro-[1,1′-biphenyl]-4-yl)-1,1-difluoro-3-oxopropan-2-yl)-2-(6-(cyclopentyloxy)naphthalen-2-yl)-2-hydroxyacetamide trifluoroacetate], the IC50 in assay [2] and in assay [3] was 1 to 10 µM throughout.
